Values joined by “and” are separate entries in the source; they are usually repeats but may differ in a detail not shown here. Equal values may be shown once. Inconclusive results and toxic doses are left out. Rule for the calls: active = survival T/C of 150% or more; inactive = T/C below 125% in these data.
Test system: CD2F1 mice, L1210 leukemia ip, survival T/C
Assay: NCI In Vivo Anticancer Drug Screen. Data for tumor model L1210 Leukemia (intraperitoneal) in CD2F1 (CDF1) mice
Settings: higher = longer survival
Summary of the method: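 Antitumor effect is scored in animals hosting a serially transplanted tumor. Values compare compound-dosed animals against vehicle-only controls as a simple quotient.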

[1] = endpoint: mean survival time, dose: 100.0 mg/kg/injection, schedule: Q04DX003 (ip), vehicle: saline with Tween-80
[2] = endpoint: mean survival time, dose: 200.0 mg/kg/injection, schedule: Q04DX003 (ip), vehicle: saline with Tween-80
[3] = endpoint: mean survival time, dose: 400.0 mg/kg/injection, schedule: Q04DX003 (ip), vehicle: saline with Tween-80
[4] = endpoint: mean survival time, dose: 100.0 mg/kg/injection, schedule: Q01DX009 (ip), vehicle: saline with Tween-80
[5] = endpoint: mean survival time, dose: 50.0 mg/kg/injection, schedule: Q01DX001 (ip), vehicle: saline
[6] = endpoint: mean survival time, dose: 200.0 mg/kg/injection, schedule: Q01DX009 (ip), vehicle: saline with Tween-80
[7] = endpoint: mean survival time, dose: 400.0 mg/kg/injection, schedule: Q01DX009 (ip), vehicle: saline with Tween-80

Measured: T/C

CCOC(=O)C(c1ccccc1)c1ccccc1
inactive: [1] 102 % of control | [2] 111 % of control | [3] 103 % of control

CC(O)C(NC(=O)OC(C)(C)C)C(=O)ON1C(=O)CCC1=O (configuration not stated)
inactive: endpoint: mean survival time, dose: 25.0 mg/kg/injection, schedule: Q01DX009 (ip), vehicle: saline with Tween-80 92 % of control | endpoint: mean survival time, dose: 50.0 mg/kg/injection, schedule: Q01DX009 (ip), vehicle: saline with Tween-80 94 % of control | [4] 96 % of control and 98 % of control

CN=C(N)N/N=C(\C)c1ccc2c(c1)Cc1cc(/C(C)=N/NC(N)=NC)ccc1-2
inactive: endpoint: median survival time, dose: 0.37 mg/kg/injection, schedule: Q01DX009 (ip), vehicle: saline with Tween-80 118 % of control and 124 % of control | endpoint: median survival time, dose: 3.0 mg/kg/injection, schedule: Q01DX009 (ip), vehicle: saline with Tween-80 121 % of control | endpoint: median survival time, dose: 6.0 mg/kg/injection, schedule: Q01DX009 (ip), vehicle: saline with Tween-80 92 % of control and 95 % of control

CC1(C)N=C(N)N=C(N)N1c1cccc(OCCCC#N)c1
inactive: endpoint: mean survival time, dose: 25.0 mg/kg/injection, schedule: Q01DX001 (ip), vehicle: saline 88 % of control | [5] 106 % of control | endpoint: mean survival time, dose: 100.0 mg/kg/injection, schedule: Q01DX001 (ip), vehicle: saline 101 % of control

N#CSCc1ccc(CSC#N)c(Br)c1
inactive: endpoint: mean survival time, dose: 75.0 mg/kg/injection, schedule: Q04DX003 (ip), vehicle: saline 102 % of control | endpoint: mean survival time, dose: 150.0 mg/kg/injection, schedule: Q04DX003 (ip), vehicle: saline 98 % of control | endpoint: mean survival time, dose: 300.0 mg/kg/injection, schedule: Q04DX003 (ip), vehicle: saline 101 % of control

CN(C)[C-]=O.[C-]#[O+].[C-]#[O+].[Fe+6].[c-]1[c-][c-][cH-][c-]1
inactive: endpoint: mean survival time, dose: 75.0 mg/kg/injection, schedule: Q01DX001 (ip), vehicle: other 94 % of control | endpoint: mean survival time, dose: 150.0 mg/kg/injection, schedule: Q01DX001 (ip), vehicle: other 88 % of control

N#CCc1ccc2c(c1)Sc1ccccc1O2
inactive: endpoint: mean survival time, dose: 100.0 mg/kg/injection, schedule: Q04DX003 (ip), vehicle: Klucel (hydroxypropylcellulose) (HPC) 108 % of control | endpoint: mean survival time, dose: 200.0 mg/kg/injection, schedule: Q04DX003 (ip), vehicle: Klucel (hydroxypropylcellulose) (HPC) 98 % of control | endpoint: mean survival time, dose: 400.0 mg/kg/injection, schedule: Q04DX003 (ip), vehicle: Klucel (hydroxypropylcellulose) (HPC) 100 % of control

CCCC[As](=O)(O)C(C)C
inactive: endpoint: mean survival time, dose: 2.7 mg/kg/injection, schedule: Q01DX009 (ip), vehicle: saline 93 % of control | endpoint: mean survival time, dose: 4.1 mg/kg/injection, schedule: Q01DX009 (ip), vehicle: saline 102 % of control | endpoint: mean survival time, dose: 5.5 mg/kg/injection, schedule: Q04DX003 (ip), vehicle: saline 100 % of control | endpoint: mean survival time, dose: 6.25 mg/kg/injection, schedule: Q01DX009 (ip), vehicle: saline 104 % of control | endpoint: mean survival time, dose: 8.2 mg/kg/injection, schedule: Q04DX003 (ip), vehicle: saline 104 % of control | endpoint: mean survival time, dose: 9.3 mg/kg/injection, schedule: Q01DX009 (ip), vehicle: saline 100 % of control | endpoint: mean survival time, dose: 11.0 mg/kg/injection, schedule: Q04DX002 (ip), vehicle: saline 106 % of control | endpoint: mean survival time, dose: 12.5 mg/kg/injection, schedule: Q04DX003 (ip), vehicle: saline 104 % of control | endpoint: mean survival time, dose: 14.0 mg/kg/injection, schedule: Q01DX009 (ip), vehicle: saline 93 % of control | endpoint: mean survival time, dose: 16.0 mg/kg/injection, schedule: Q04DX002 (ip), vehicle: saline 113 % of control | endpoint: mean survival time, dose: 18.0 mg/kg/injection, schedule: Q04DX003 (ip), vehicle: saline 100 % of control | endpoint: mean survival time, dose: 22.0 mg/kg/injection, schedule: Q01DX001 (ip), vehicle: saline 104 % of control | endpoint: mean survival time, dose: 25.0 mg/kg/injection, schedule: Q04DX002 (ip), vehicle: saline 100 % of control | endpoint: mean survival time, dose: 28.0 mg/kg/injection, schedule: Q04DX003 (ip), vehicle: saline 102 % of control | endpoint: mean survival time, dose: 35.0 mg/kg/injection, schedule: Q01DX001 (ip), vehicle: saline 102 % of control | endpoint: mean survival time, dose: 35.0 mg/kg/injection, schedule: Q04DX002 (ip), vehicle: saline 111 % of control | [5] 104 % of control | endpoint: mean survival time, dose: 55.0 mg/kg/injection, schedule: Q04DX002 (ip), vehicle: saline 95 % of control | endpoint: mean survival time, dose: 75.0 mg/kg/injection, schedule: Q01DX001 (ip), vehicle: saline 111 % of control

CCC1(O)C(=O)OCc2c1cc1n(c2=O)Cc2cc3ccc([N+](=O)[O-])cc3nc2-1 (configuration not stated)
inactive: endpoint: median survival time, dose: 10.0 mg/kg/injection, schedule: Q04DX002 (ip), vehicle: saline with Tween-80 114 % of control

COc1ccc(OC)c2c1CCC(O)(C#N)C2 (configuration not stated)
inactive: endpoint: mean survival time, dose: 12.5 mg/kg/injection, schedule: Q01DX009 (ip), vehicle: water 98 % of control | endpoint: mean survival time, dose: 25.0 mg/kg/injection, schedule: Q01DX009 (ip), vehicle: water 89 % of control

Nc1nc(N)c(CCCc2ccccc2)c(N)n1
inactive: endpoint: mean survival time, dose: 2.0 mg/kg/injection, schedule: Q04DX002 (ip), vehicle: Klucel (hydroxypropylcellulose) (HPC) 104 % of control | endpoint: mean survival time, dose: 4.0 mg/kg/injection, schedule: Q04DX002 (ip), vehicle: Klucel (hydroxypropylcellulose) (HPC) 101 % of control | endpoint: mean survival time, dose: 8.0 mg/kg/injection, schedule: Q04DX002 (ip), vehicle: Klucel (hydroxypropylcellulose) (HPC) 109 % of control | endpoint: mean survival time, dose: 16.0 mg/kg/injection, schedule: Q04DX002 (ip), vehicle: Klucel (hydroxypropylcellulose) (HPC) 98 % of control | endpoint: mean survival time, dose: 32.0 mg/kg/injection, schedule: Q04DX002 (ip), vehicle: Klucel (hydroxypropylcellulose) (HPC) 98 % of control | endpoint: mean survival time, dose: 64.0 mg/kg/injection, schedule: Q04DX002 (ip), vehicle: Klucel (hydroxypropylcellulose) (HPC) 98 % of control

CN1CC(O)(C(O)C(O)C(O)CO)SC1=S (configuration not stated)
inactive: endpoint: mean survival time, dose: 100.0 mg/kg/injection, schedule: Q01DX009 (ip), vehicle: saline sonified 98 % of control | [1] 100 % of control | endpoint: mean survival time, dose: 200.0 mg/kg/injection, schedule: Q01DX009 (ip), vehicle: saline sonified 101 % of control | [2] 93 % of control | endpoint: mean survival time, dose: 400.0 mg/kg/injection, schedule: Q01DX009 (ip), vehicle: saline sonified 109 % of control | [3] 89 % of control

CCCn1c(O)c(C=N)c(=O)n(CCC)c1=O
inactive: [4] 98 % of control | [1] 96 % of control | [6] 101 % of control | [2] 97 % of control | [7] 101 % of control | [3] 100 % of control

COC(=O)CCCC1CCC(=NNc2ccc([N+](=O)[O-])cc2[N+](=O)[O-])CC1 (configuration not stated)
inactive: [1] 86 % of control | [2] 96 % of control | [3] 93 % of control

COc1ccc(NC(=O)Nc2ccc(OC)cc2OC)cc1
inactive: endpoint: mean survival time, dose: 100.0 mg/kg/injection, schedule: Q04DX002 (ip), vehicle: saline with Tween-80 86 % of control | endpoint: mean survival time, dose: 200.0 mg/kg/injection, schedule: Q04DX002 (ip), vehicle: saline with Tween-80 90 % of control | endpoint: mean survival time, dose: 400.0 mg/kg/injection, schedule: Q04DX002 (ip), vehicle: saline with Tween-80 86 % of control

CC(=O)Nc1ccc(/C=C(\C#N)c2ccc(C)cc2)cc1
inactive: [4] 89 % of control | [6] 91 % of control | [7] 100 % of control

C[CH2][Sn]([Cl])([CH2]C)[c]1cc[c]([Sn]([Cl])([CH2]C)[CH2]C)cc1
inactive: endpoint: median survival time, dose: 0.06 mg/kg/injection, schedule: Q01DX005 (ip), vehicle: Klucel (hydroxypropylcellulose) (HPC) 103 % of control | endpoint: median survival time, dose: 0.12 mg/kg/injection, schedule: Q01DX005 (ip), vehicle: Klucel (hydroxypropylcellulose) (HPC) 112 % of control | endpoint: median survival time, dose: 3.8 micrograms/kg/injection, schedule: Q01DX005 (ip), vehicle: Klucel (hydroxypropylcellulose) (HPC) 103 % of control | endpoint: median survival time, dose: 7.5 micrograms/kg/injection, schedule: Q01DX005 (ip), vehicle: Klucel (hydroxypropylcellulose) (HPC) 100 % of control | endpoint: median survival time, dose: 15.0 micrograms/kg/injection, schedule: Q01DX005 (ip), vehicle: Klucel (hydroxypropylcellulose) (HPC) 102 % of control | endpoint: median survival time, dose: 30.0 micrograms/kg/injection, schedule: Q01DX005 (ip), vehicle: Klucel (hydroxypropylcellulose) (HPC) 98 % of control | endpoint: median survival time, dose: 60.0 micrograms/kg/injection, schedule: Q01DX005 (ip), vehicle: Klucel (hydroxypropylcellulose) (HPC) 103 % of control | endpoint: median survival time, dose: 120.0 micrograms/kg/injection, schedule: Q01DX005 (ip), vehicle: Klucel (hydroxypropylcellulose) (HPC) 109 % of control

Source: PubChem BioAssay AID256 (DTP/NCI, 2004)
